Assay results published in US5721245A, “4-[3-indolyl]-1H-pyrrolone” (Hoffmann-La Roche Inc., priority 1989, dated 1998).
Structures can show the parent of a compound that is named as a salt.

Target: protein kinase C
Experiment: Inhibition of protein kinase C in vitro (protein kinase-induced incorporation of 32P from [γ-32P]ATP into histone)
Format: biochemical
Conditions: concentration which reduces by 50% the protein kinase-induced incorporation of 32P from [γ-32P]ATP into histone
Description: The IC50 FIGURES in the following Table are that concentration of test compound which reduces by 50% the protein kinase-induced incorporation of ^32 P from [γ-^32 P]ATP into histone.

CN(C)CC1Cc2c(C3=C(c4cn(C)c5ccccc45)C(=O)NC3=O)c3ccccc3n2C1 (centres unmarked) [3-[2,3-dihydro-2-(dimethylaminomethyl)-1H-pyrrolo[1,2-a]indol-9-yl]-4-(1-methyl-3-indolyl)-1H-pyrrole-2,5-dione trifluoromethanesulphonate]
IC50: 20 nM

Cn1cc(C2=C(c3c4n(c5ccccc35)CCN(C(=O)CN)C4)C(=O)NC2=O)c2ccccc21 [3-[2-(aminoacetyl)-1,2,3,4-tetrahydropyrazino[1,2-a]indol-10-yl]-4-(1-methyl-3-indolyl)-1H-pyrrole-2,5-dione hydrochloride]
IC50: 50 nM

Cn1cc(C2=C(c3c4n(c5ccccc35)CCC(CN3CCCCC3)C4)C(=O)NC2=O)c2ccccc21 (centres unmarked) [3-[6,7,8,9-tetrahydro-8-[(1-piperidino)methyl]pyrido[1,2-a]indol-10-yl]-4-(1-methyl-3-indolyl)-1H-pyrrole-2,5-dione]
IC50: 30 nM

Cn1cc(C2=C(c3c4n(c5ccccc35)CC(CCN)CC4)C(=O)NC2=O)c2ccccc21 (centres unmarked) [3-[7-(2-aminoethyl)-6,7,8,9-tetrahydropyrido[1,2-a]indol-10-yl]-4-(1-methyl-3-indolyl)-1H-pyrrole-2,5-dione hydrochloride]
IC50: 20 nM

Cn1cc(C2=C(c3c4n(c5ccccc35)CC(CSC(=N)N)CC4)C(=O)NC2=O)c2ccccc21 (centres unmarked) [3-[7-(amidinothiomethyl)-6,7,8,9-tetrahydropyrido[1,2-a]indol-10-yl]-4-(1-methyl-3-indolyl)-1H-pyrrole-2,5-dione methanesulfonate]
IC50: 10 nM

Cn1cc(C2=C(c3c4n(c5ccccc35)CC(CN)CC4)C(=O)NC2=O)c2ccccc21 (centres unmarked) [3-[7-(aminomethyl)-6,7,8,9-tetrahydropyrido[1,2-a]indol-10-yl]-4-(1-methyl-3-indolyl)-1H-pyrrole-2,5-dione]
IC50: 15 nM

Cn1cc(C2=C(c3c4n(c5ccccc35)CCC(CN)C4)C(=O)NC2=O)c2ccccc21 (centres unmarked) [3-[8-(aminomethyl)-6,7,8,9-tetrahydropyrido[1,2-a]indol-10-yl]-4-(1-methyl-3-indolyl)-1H-pyrrole-2,5-dione hydrochloride]
IC50: 8 nM

Cn1cc(C2=C(c3c4n(c5ccccc35)CCC(C(=N)N)C4)C(=O)NC2=O)c2ccccc21 (centres unmarked) [3-[8-amidino-6,7,8,9-tetrahydropyrido[1,2-a]indol-10-yl]-4-(1-methyl-3-indolyl)-1H-pyrrole-2,5-dione hydrochloride]
IC50: 60 nM
